{"source": "patent US20080255244A1", "about": "“CaM Kinase II Inhibitor Improves Retinoic Acid Therapy and Inhibits the Proliferation of Myeloid Leukemia Cells” (Fred Hutchinson Cancer Research Center, priority 2007, published 2008)", "type_in_all_cases": "cell-based, human", "key": {"THP1 cells": {"system": "THP1 cells", "test": "THP1 proliferation in liquid suspension culture", "protocol": "FIG. 11. […] (A) K562 cells were seeded in liquid suspension culture at 5×10^4 cells/ml in the presence or absence of the indicated concentration of compounds, and cell counts were obtained at the indicated time. (B) The indicated myeloid leukemia cell lines were seeded in liquid suspension culture at 5×10^4 cells/ml in the presence or absence of KN93, and cell counts obtained at the indicated time. (C) K562 cells were electroporated with the LXSN expression vector harboring the kinase dead, Lys^43 mutated, truncated CaMKII construct (kdCaMKII) as well as with the control (empty) LXSN vector. The electroporated cells were diluted into 96 well plates in liquid suspension culture in the presence of G418 (1 mg/ml). Following eight days of culture the total number of discrete, actively proliferating G418 resistant colonies within individual wells was determined.\nCell lines. All leukemia cell lines are cultured at 37° in RPMI supplemented with 5% heat-inactivated fetal calf serum."}, "[1]": {"system": "NB4 subclones that are unresponsive to ATRA", "test": "Differentiation of ATRA-unresponsive NB4 subclones", "description": "(§1) Pharmacological CaMK inhibitors trigger myeloid leukemia cell differentiation. Particularly compelling evidence for the physiological importance of the CaMKII—mediated regulation of RAR activity is our experimental observation that KN-62, a pharmacological inhibitor of the CaMKs, enhances both RAR transcriptional activity (FIG. 1B) and the differentiation of certain myeloid leukemia cell lines (FIG. 7). Acute myelogenous leukemia (AML) is a heterogenous disease, and successful therapy with RA has been generally confined to those leukemias harboring RARα chromosome translocations."}, "HL-60 cells": {"system": "HL-60 cells", "test": "Differentiation of HL-60 cells (Wright Giemsa morphology, Cd11b FACS)", "conditions": "single agent; five days; KN62 5 μM", "protocol": "FIG. 7. KN-62 regulates the differentiation of myeloid leukemia cell lines. (A) Wright Giemsa-stained HL-60 cells either (a) uninduced or treated for five days with (b) KN62 or (c) ATRA. (d) CD11b expression in HL-60 cells after five days exposure to KN62 (5 μM) or ATRA (1 μM). (B) Wright-Giemsa stained NB4 cells treated for five days with KN-62 (5 μM) and ATRA as indicated. […] (C) Cd11b expression of NB4 cells treated for five days with the indicated concentrations of RA and/or KN-62. (D) Western blots with the indicated antibodies were performed on HL60 cell lysates following incubation with KN62 for the indicated period of time. (E) Western blots of NB4 cell lysates following a five day incubation with the indicated compounds.\nAntibodies and chemical reagents. Antibodies against RARα, βtubulin, CaMKIIα, CaMKIIβ, CaMKIIγ, CaMKIIδ, CaMKIα, as well as phosphospecific antibodies against CaMKII were all purchased from Santa Cruz Biotechnology. Antibodies against N-CoR and SMRT were from Upstate Biotechnology. CaMKIV antibody was from BD Biosciences. Anti-FLAG antibody was from Sigma while anti-HA antibody from Novachem. Quantitation of CD11b surface antigen expression was performed utilizing the fluorescent-activated cell sorter (FACS) with PE-conjugated anti-CD11b antibody from Becton Dickinson. KN-62, KN-93 and ionomycin were obtained from Calbiochem. […]"}, "Kasumi cells": {"system": "Kasumi cells", "test": "Differentiation of Kasumi cells", "conditions": "preliminary studies; not shown", "description": "as §1"}, "C/EBPε RARE": {"system": "C/EBPε RARE", "test": "ChIP at the C/EBPε promoter RARE in HL60 cells", "conditions": "ATRA 1 uM", "protocol": "(§2) FIG. 6. Retinoic acid induces changes in the association of CaMKIIγ with the C/EBPε promoter RARE. […] (B) The human C/EBPε 5′ region indicating the location of the ChIP PCR primers. (C) ChIP assays. HL60 cell chromatin from cells treated with ATRA (1 uM) for the indicated time was immunoprecipitated with the indicated antibodies, the DNA isolated and subjected to PCR utilizing the indicated C/EBPε promoter primer pairs.\nChIP. HL60 cells incubated for various periods of time after ATRA (1 μM) treatment were harvested and crosslinked using 1% formaldehyde for 15 minutes at 37° and incubated another 15 minutes at room temperature with 125 mM glycine. Cells then were rinsed and washed three times with cold PBS. The cell pellets were resuspended in 0.2-2 ml of SDS lysis buffer (1% SDS, 10 mM EDTA, […] Tris-HCL, pH 8.1) with protease inhibitors(1 μg/ml leupeptin, […] aprotinin, 1 mM PMSF, 1 μg/ml pepstatin A, 10 μM antipain, 10 μM bestatin, 1 mM NaF, and 1× phosphatase inhibitor cocktail I/II) and sonicated three times at 20 s each to reduce DNA length to 200-800 bp. Supernatants were collected by centrifugation for 10 minutes at 13,200 rpm at 4° and diluted in 10 fold dilution buffer (0.01% SDS, 1.1% Triton X-100, 1.2 mm EDTA, 16.7 mM Tris-HCl, pH 8.1, 167 mM NaCl) with the above protease inhibitors. […]"}, "[2]": {"system": "C/EBPε expression in HL60", "test": "Western blot of C/EBPε expression in HL60 cells", "conditions": "ATRA 1 uM", "protocol": "as §2\nProtein extracts, Western blotting and co-immunoprecipitations. Westerns and co-immunoprecipitations were performed as previously detailed (Si, J., and Collins, S. J., Blood 100:4401-4409 (2002))."}}, "data": [{"smiles": "COc1ccc(S(=O)(=O)N(CCO)c2ccccc2CN(C)C/C=C/c2ccc(Cl)cc2)cc1", "note": "[KN-93]", "values": [{"measurement": "cell proliferation", "setting": "THP1 cells", "value": "inhibition"}, {"measurement": "cell viability or morphologic differentiation", "setting": "THP1 cells", "value": "without any significant effect"}]}, {"smiles": "CN([C@@H](Cc1ccc(OS(=O)(=O)c2cccc3cnccc23)cc1)C(=O)N1CCN(c2ccccc2)CC1)S(=O)(=O)c1cccc2cnccc12", "note": "[KN-62]", "values": [{"measurement": "KN62-mediated differentiation of ATRA-unresponsive NB4 subclones", "setting": "[1]", "value": "do not observe any"}, {"measurement": "HL-60 differentiation (morphologic differentiation and Cd11b expression)", "setting": "HL-60 cells", "value": "potent inducer"}, {"measurement": "differentiation of Kasumi", "setting": "Kasumi cells", "value": "does not induce"}]}, {"smiles": "CC1=C(/C=C/C(C)=C/C=C/C(C)=C/C(=O)O)C(C)(C)CCC1", "note": "[ATRA, All-trans retinoic acid]", "values": [{"measurement": "association of corepressors N-CoR and SMRT with the C/EBPε RARE", "setting": "C/EBPε RARE", "value": "rapid displacement"}, {"measurement": "association of CaMKIIγ with the C/EBPε RARE", "setting": "C/EBPε RARE; observed as early as 1-2 hours", "value": "dissociation"}, {"measurement": "C/EBPε expression", "setting": "[2]", "value": "enhanced"}]}]}
